ChEMBL document CHEMBL4392841, “Identification of ortho-hydroxy anilide as a novel scaffold for lysine demethylase 5 inhibitors” (Bioorg Med Chem Lett, 2019)
Active and inactive are the calls of the source. No cut-off for these calls is given here.

Assays:
[1] = target: T1, Lysine-specific demethylase 5A (Homo sapiens, UniProt P29375); assay: Inhibition of KDM5A in human A549 cells assessed as increase in H3K4me3/H3 levels incubated for 24 hrs by Western blot analysis; assay type: cell-based
[2] = target: T1, Lysine-specific demethylase 5A; assay: Inhibition of KDM5A in human A549 cells assessed as H3K4me3/H3 ratio level at 250 uM levels incubated for 24 hrs by Western blot analysis relative to control; assay type: cell-based
[3] = target: T1, Lysine-specific demethylase 5A; assay: Inhibition of KDM5A in human A549 cells assessed as H3K4me3/H3 ratio level at 100 uM levels incubated for 24 hrs by Western blot analysis relative to control; assay type: cell-based
[4] = target: T1, Lysine-specific demethylase 5A; assay: Inhibition of KDM5A in human A549 cells assessed as H3K4me3/H3 ratio level at 50 uM levels incubated for 24 hrs by Western blot analysis relative to control; assay type: cell-based
[5] = target: T1, Lysine-specific demethylase 5A; assay: Inhibition of KDM5A in human A549 cells assessed as increase in H3K4me3/H3 ratio level at 50 to 250 uM levels incubated for 24 hrs by Western blot analysis relative to control; assay type: cell-based
A549 = assay: Cytotoxicity in human A549 cells assessed as reduction in cell viability at 250 uM; assay type: functional, cell-based
[6] = target: T1, Lysine-specific demethylase 5A; assay: Inhibition of C-terminal FLAG-tagged human KDM5A expressed in Sf9 cells at 50 uM pre-incubated for 4 hrs before substrate addition and measured after 1 hr by AlphaScreen assay
[7] = target: T1, Lysine-specific demethylase 5A; assay: Inhibition of C-terminal FLAG-tagged human KDM5A expressed in Sf9 cells pre-incubated for 4 hrs before substrate addition and measured after 1 hr by AlphaScreen assay
[8] = target: T2, Lysine-specific demethylase 4A (Homo sapiens) (UniProt O75164); assay: Inhibition of C-terminal FLAG-tagged human KDM4A expressed in Escherichia coli at 50 uM pre-incubated for 4 hrs before substrate addition and measured after 1 hr by AlphaScreen assay
T2 sequence (whole entry): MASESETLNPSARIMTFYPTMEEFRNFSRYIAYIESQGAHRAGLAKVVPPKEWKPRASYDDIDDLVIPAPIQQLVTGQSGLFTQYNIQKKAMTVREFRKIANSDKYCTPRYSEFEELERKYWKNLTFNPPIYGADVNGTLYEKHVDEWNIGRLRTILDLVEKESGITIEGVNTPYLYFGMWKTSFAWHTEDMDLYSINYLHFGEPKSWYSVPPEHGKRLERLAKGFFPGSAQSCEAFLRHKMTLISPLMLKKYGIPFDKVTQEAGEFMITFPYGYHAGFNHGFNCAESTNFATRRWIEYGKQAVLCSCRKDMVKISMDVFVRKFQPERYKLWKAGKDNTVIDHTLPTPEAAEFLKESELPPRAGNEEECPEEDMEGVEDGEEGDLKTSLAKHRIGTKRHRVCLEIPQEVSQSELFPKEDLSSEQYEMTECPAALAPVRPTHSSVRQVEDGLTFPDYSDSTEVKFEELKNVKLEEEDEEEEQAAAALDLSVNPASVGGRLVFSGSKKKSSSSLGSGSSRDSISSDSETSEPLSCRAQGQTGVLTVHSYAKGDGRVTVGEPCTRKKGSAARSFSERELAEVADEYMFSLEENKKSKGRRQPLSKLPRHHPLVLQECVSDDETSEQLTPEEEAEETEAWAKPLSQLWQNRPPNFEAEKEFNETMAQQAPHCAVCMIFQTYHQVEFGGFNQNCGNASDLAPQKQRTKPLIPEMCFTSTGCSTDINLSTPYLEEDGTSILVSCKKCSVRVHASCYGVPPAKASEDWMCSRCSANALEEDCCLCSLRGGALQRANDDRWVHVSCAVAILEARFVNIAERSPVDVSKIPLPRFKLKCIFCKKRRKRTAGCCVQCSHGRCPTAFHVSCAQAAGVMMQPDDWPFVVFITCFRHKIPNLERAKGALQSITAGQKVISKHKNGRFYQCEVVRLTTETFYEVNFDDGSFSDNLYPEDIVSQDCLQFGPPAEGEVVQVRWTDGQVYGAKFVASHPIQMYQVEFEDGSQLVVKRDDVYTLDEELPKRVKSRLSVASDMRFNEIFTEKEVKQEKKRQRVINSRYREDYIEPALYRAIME

[9] = target: Lysine-specific demethylase 6B (Homo sapiens) (UniProt O15054); assay: Inhibition of C-terminal FLAG-tagged human KDM6B expressed in expressed in Sf9 cells at 50 uM pre-incubated for 4 hrs before substrate addition and measured after 1 hr by AlphaScreen assay
[10] = target: Histone deacetylase 1 (Homo sapiens) (UniProt Q13547); assay: Inhibition of C-terminal GST-tagged full-length human HDAC1 expressed in Sf9 cells at 100 uM pre-incubated for 10 mins before substrate addition and measured after 20 mins by fluorescence assay
[11] = target: T1, Lysine-specific demethylase 5A; assay: Inhibition of C-terminal FLAG-tagged human KDM5A expressed in Sf9 cells at 200 uM pre-incubated for 15 mins before H3(1-21)K4me3 peptide substrate addition in presence of 50 uM alpha-KG by formaldehyde dehydrogenase coupled demethylase assay
[12] = target: T1, Lysine-specific demethylase 5A; assay: Inhibition of C-terminal FLAG-tagged human KDM5A expressed in Sf9 cells at 200 uM pre-incubated for 15 mins before H3(1-21)K4me3 peptide substrate addition in presence of 1000 uM alpha-KG by formaldehyde dehydrogenase coupled demethylase assay
[13] = target: T3, Lysine-specific demethylase 4A (Homo sapiens, UniProt O75164); assay: Inhibition of C-terminal FLAG-tagged human KDM4A expressed in Escherichia coli pre-incubated for 4 hrs before substrate addition and measured after 1 hr by AlphaScreen assay
T3 sequence (O75164 whole entry): T2 sequence (whole entry)

T1 sequence (P29375 whole entry): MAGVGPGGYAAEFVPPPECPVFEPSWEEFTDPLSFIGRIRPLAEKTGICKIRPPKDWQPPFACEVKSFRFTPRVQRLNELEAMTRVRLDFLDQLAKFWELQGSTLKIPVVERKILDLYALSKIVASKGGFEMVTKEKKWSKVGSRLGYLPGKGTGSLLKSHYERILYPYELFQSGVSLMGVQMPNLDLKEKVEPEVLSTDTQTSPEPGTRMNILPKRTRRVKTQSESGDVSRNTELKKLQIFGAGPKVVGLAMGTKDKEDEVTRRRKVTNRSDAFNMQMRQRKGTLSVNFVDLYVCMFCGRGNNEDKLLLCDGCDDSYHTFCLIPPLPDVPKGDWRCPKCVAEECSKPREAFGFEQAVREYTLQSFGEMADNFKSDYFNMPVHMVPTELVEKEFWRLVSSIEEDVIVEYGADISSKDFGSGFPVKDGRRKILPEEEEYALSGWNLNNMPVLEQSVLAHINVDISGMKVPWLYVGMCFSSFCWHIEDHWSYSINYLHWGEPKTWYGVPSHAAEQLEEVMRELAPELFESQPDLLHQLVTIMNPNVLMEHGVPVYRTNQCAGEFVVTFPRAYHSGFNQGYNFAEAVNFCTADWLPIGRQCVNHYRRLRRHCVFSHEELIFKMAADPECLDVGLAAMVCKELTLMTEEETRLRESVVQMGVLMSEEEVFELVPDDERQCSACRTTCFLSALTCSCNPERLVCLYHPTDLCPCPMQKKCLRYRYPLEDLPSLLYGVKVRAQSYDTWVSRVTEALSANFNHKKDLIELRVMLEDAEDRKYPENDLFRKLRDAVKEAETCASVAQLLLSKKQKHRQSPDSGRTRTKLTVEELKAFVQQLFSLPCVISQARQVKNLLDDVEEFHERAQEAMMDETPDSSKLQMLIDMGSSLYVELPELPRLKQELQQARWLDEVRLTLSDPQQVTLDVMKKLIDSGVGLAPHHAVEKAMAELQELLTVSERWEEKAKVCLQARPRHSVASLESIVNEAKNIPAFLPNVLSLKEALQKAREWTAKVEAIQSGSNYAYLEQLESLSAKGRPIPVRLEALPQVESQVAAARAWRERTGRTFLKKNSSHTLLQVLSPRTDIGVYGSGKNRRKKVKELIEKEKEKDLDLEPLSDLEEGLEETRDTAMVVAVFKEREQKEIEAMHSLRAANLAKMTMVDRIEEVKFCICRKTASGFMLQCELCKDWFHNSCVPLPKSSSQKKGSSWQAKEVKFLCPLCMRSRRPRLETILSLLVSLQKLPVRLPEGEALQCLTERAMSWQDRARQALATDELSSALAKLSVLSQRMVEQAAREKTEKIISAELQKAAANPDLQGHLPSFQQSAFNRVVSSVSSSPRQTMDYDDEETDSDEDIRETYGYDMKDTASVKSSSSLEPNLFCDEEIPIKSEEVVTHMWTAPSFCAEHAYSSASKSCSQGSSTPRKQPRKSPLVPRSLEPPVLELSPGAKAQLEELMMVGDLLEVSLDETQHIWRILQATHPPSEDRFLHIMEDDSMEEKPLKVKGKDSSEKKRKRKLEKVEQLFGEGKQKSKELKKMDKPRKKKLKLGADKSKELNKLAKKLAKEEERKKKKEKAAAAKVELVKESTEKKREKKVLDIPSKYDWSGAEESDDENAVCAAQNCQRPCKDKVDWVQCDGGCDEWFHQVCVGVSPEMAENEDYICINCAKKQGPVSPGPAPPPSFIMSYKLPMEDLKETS
Histone deacetylase 1 (Homo sapiens), sequence (Q13547 whole entry): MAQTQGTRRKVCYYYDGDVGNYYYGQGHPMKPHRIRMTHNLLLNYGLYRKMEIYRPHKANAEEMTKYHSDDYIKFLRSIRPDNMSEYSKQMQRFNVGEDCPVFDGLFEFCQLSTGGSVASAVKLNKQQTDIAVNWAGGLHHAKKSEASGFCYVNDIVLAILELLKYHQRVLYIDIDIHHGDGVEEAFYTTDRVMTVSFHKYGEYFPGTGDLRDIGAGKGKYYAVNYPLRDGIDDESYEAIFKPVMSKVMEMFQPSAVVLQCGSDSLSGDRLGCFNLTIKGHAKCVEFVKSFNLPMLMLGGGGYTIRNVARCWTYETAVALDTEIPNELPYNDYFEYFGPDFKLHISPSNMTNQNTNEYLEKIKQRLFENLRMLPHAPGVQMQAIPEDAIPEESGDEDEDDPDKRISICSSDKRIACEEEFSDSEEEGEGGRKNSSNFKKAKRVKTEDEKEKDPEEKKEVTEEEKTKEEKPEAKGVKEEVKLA
Lysine-specific demethylase 6B (Homo sapiens), sequence (O15054 whole entry): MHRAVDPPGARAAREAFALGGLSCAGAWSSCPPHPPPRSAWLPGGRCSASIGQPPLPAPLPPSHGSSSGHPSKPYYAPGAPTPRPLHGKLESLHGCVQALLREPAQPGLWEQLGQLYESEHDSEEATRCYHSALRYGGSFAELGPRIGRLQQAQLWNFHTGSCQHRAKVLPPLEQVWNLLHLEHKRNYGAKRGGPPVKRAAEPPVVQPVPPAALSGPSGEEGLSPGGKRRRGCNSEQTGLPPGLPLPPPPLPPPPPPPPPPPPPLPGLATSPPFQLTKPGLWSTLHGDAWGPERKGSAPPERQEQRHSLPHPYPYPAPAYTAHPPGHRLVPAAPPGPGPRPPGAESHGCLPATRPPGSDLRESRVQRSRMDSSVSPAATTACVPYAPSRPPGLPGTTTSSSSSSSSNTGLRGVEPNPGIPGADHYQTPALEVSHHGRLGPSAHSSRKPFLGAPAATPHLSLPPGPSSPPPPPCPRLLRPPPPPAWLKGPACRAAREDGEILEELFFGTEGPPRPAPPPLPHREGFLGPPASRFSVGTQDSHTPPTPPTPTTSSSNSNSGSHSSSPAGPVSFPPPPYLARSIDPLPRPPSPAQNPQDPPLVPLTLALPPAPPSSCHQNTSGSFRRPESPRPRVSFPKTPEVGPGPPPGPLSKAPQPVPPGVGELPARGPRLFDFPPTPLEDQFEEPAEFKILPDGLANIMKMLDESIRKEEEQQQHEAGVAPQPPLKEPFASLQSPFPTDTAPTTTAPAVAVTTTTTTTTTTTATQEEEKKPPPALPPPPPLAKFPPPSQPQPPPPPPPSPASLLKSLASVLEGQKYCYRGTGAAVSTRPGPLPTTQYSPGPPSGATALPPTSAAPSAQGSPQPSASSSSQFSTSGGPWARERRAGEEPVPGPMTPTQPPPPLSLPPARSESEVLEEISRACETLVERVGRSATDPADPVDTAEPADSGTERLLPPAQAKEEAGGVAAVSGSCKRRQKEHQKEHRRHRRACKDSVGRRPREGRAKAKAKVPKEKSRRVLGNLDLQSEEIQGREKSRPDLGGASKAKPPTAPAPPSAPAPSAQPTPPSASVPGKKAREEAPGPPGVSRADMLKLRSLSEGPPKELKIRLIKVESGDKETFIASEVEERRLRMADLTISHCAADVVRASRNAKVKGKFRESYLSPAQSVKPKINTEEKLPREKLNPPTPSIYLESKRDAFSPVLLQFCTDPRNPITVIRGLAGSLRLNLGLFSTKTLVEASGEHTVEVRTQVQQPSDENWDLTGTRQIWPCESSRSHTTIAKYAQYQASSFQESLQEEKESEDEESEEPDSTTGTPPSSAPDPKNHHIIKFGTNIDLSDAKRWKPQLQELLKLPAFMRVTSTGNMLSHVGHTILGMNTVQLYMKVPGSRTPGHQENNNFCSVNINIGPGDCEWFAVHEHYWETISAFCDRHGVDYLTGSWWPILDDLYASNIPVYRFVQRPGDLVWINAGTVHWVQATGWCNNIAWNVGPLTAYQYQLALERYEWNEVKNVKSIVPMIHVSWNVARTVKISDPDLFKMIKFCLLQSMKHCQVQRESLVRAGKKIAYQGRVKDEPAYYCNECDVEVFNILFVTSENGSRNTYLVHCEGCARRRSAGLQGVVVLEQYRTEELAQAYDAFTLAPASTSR

COC(=O)c1ccc(NC=O)c(O)c1
inhibition [1]: Dose-dependent effect | Ratio [2]: 2.15 | Ratio [3]: 1.72 | Ratio [4]: 1.31 | fold change (FC) [5]: 1.7 to 2.2 | Activity (A549): inactive

CC(=O)Nc1ccc(C(=O)O)cc1O
inhibition [6]: Active

CCCCCN(C)CCCCC(=O)N(O)CCC(=O)O
IC50 [7]: 0.079 µM

CC(=O)Nc1cc(C(=O)O)ccc1O
inhibition [6]: Active

O=CNc1cc(C(=O)O)ccc1O
inhibition [6]: 73% | IC50 [7]: 48 µM

O=CNc1ccc(C(=O)O)cc1O
inhibition [6]: 87% | IC50 [7]: 46 µM | inhibition [8]: 20% | inhibition [9]: 38% | inhibition [10]: 6% | inhibition [11]: 97% | inhibition [12]: 44% | Ratio [2]: 0.96 | Ratio [3]: 1.01 | Ratio [4]: 0.93 | Activity (A549): inactive

CC(=O)Nc1ccc(C(=O)O)cc1N
inhibition [6]: inactive

O=C(O)CNC(=O)C(=O)O [N-OXALYLGLYCINE]
IC50 [13]: 85 µM
